Data set [1] relates to Tenebrio molitor. In words: Juvenile hormone mimetic activity in Tenebrio molitor (yellow mealworm). Set-up: unit not given here. Type of data set: functional.
Data set [2] can be described thus: Partition coefficient (logP). The conditions noted are these: octanol/water; read-out: logP. It counts as physicochemical.

The structures appear in SMILES notation.

Broadly, the logP is a log measure of how a compound divides between an organic and an aqueous phase.

In the case of `CC#CCOC(=O)/C=C(C)/C=C/CC(C)CCCC(C)C` (stereo not drawn), the pI50 in data set [1] turned out to be 2.12. Further, in data set [2], the logP is 6.4.
For `CCOC(=O)/C=C(C)/C=C/CC(C)CCCC(C)(C)OC` (stereo not drawn) the same measures were 1.92 and 5.54.
For `C=CCOC(=O)/C=C(C)/C=C/CC(C)CCCC(C)C` (stereo not drawn) the same measures were 3.51 and 6.73.
`C=C(C)CCCC(C)C/C=C/C(C)=C/C(=O)OC(C)C` (stereo not drawn) had a pI50 in data set [1] of 4.1. For the same compound, in data set [2], the logP was 6.6.
In data set [1], `CCOC(C)(C)CCCC(C)C/C=C/C(C)=C/C(=O)OC(C)C` (stereo not drawn) returned a pI50 of 4.51. In addition, the logP in data set [2] turned out to be 6.49.
For `CCOC(=O)/C=C(C)/C=C/CC(C)CCCC(C)(C)C` (stereo not drawn) the same measures were 2.5 and 7.15.
For `COC(C)(C)CCCC(C)C/C=C/C(C)=C/C(=O)OC1CCC1` (stereo not drawn) the same measures were 2.79 and 6.44.
For `CCOC(=O)/C=C(C)/C=C/CC(C)CCCC(C)CC` (stereo not drawn) the same measures were 3.47 and 7.81.
In data set [1], `CCN(CC)C(=O)/C=C(C)/C=C/CC(C)CCCC(C)(C)OC` (stereo not drawn) gave a pI50 of 5.51. Besides, the lipophilicity (logP) in data set [2] came out at 4.82.
For `CCOC(=O)/C=C(C)/C=C/CC(C)CCCC(C)(C)OCC` (stereo not drawn) the same measures were 2.77 and 6.08.
For `CSC(=O)/C=C(C)/C=C/CC(C)CCCC(C)C` (stereo not drawn) the same measures were 3.25 and 7.44.
Take `CCCCOC(=O)/C=C(C)/C=C/CC(C)CCCC(C)(C)OC` (stereo not drawn): the pI50 in data set [1] turned out to be 0.93. In data set [2], the logP is 6.62.
For `CCCOC(=O)/C=C(C)/C=C/CC(C)CCCC(C)(C)OC` (stereo not drawn) the same measures were 1.65 and 6.08.
Regarding `CCNC(=O)/C=C(C)/C=C/CC(C)CCCC(C)C` (stereo not drawn), in data set [1], the pI50 is given as 4.76. Also, the logP in data set [2] amounted to 5.24.
`CCN(CC)C(=O)/C=C(C)/C=C/CC(C)CCC=C(C)C` (stereo not drawn) yielded a pI50 in data set [1] of 1.7. The logP in data set [2] worked out at 5.47.
In data set [1], `CC(/C=C/CC(C)CCCC(C)(C)O)=C\C(=O)OC(C)C` (stereo not drawn) gave a pI50 of 4.33. The logP in data set [2] is 5.06.
Regarding `CCOC(=O)/C=C(C)/C=C/CC(C)CCCC(C)(C)Cl` (stereo not drawn), the pI50 in data set [1] came out at 3.5. The logP in data set [2] came to 6.44.
The compound `CC(/C=C/CC(C)CCCC(C)(C)Cl)=C\C(=O)OC(C)C` (stereo not drawn) came in with a pI50 in data set [1] of 3.75. In data set [2], the logP is 6.85.
In data set [1], `C=CCNC(=O)/C=C(C)/C=C/CC(C)CCCC(C)C` (stereo not drawn) returned a pI50 of 4.33. Besides, the logP in data set [2] turned out to be 5.23.
For `COC(C)(C)CCCC(C)C/C=C/C(C)=C/C(=O)OC1CC1` (stereo not drawn) the same measures were 2.89 and 5.71.
On to `CCOC(=O)/C=C(C)/C=C/CC(C)CCC=C(C)C` (stereo not drawn), for which, in data set [1], the pI50 is listed as 2.38. The logP in data set [2] is 6.19.
`CC(/C=C/CC(C)CCCC(C)C)=C\C(=O)OCC(C)C` (stereo not drawn) displayed a pI50 in data set [1] of 3.8. For the same compound, the logP in data set [2] came out at 7.69.
For `CC(/C=C/CC(C)CCCC(C)C)=C\C(=O)SC(C)C` (stereo not drawn) the same measures were 4.22 and 8.39.
In turn, `C=CC(C)OC(=O)/C=C(C)/C=C/CC(C)CCCC(C)(C)OC` (stereo not drawn) showed a pI50 in data set [1] of 4.39. Moreover, the logP in data set [2] is 5.94.
For `C/C=C/COC(=O)/C=C(C)/C=C/CC(C)CCCC(C)(C)OC` (stereo not drawn) the same measures were 2.25 and 6.07.
For `CCCOC(=O)/C=C(C)/C=C/CC(C)CCCC(C)C` (stereo not drawn) the same measures were 2.71 and 7.28.
In the case of `CCSC(=O)/C=C(C)/C=C/CC(C)CCCC(C)(C)C` (stereo not drawn), the logP in data set [2] was 8.39.
As for `COC(C)(C)CCCC(C)C/C=C/C(C)=C/C(=O)OC(C)C` (stereo not drawn), in data set [2], the logP turned out to be 5.95.
On to `CC(/C=C/CC(C)CCCC(C)(C)C)=C\C(=O)OC(C)C` (stereo not drawn), for which the logP in data set [2] amounted to 7.56.
`CCOC(=O)/C=C(C)/C=C/CC(C)CCCC(C)C` (stereo not drawn) [HYDROPRENE]: the logP in data set [2] was determined as 6.74.
The same measure, in the same setting: then `C#CCOC(=O)/C=C(C)/C=C/CC(C)CCCC(C)C` (stereo not drawn) [KINOPRENE], with 5.86.
Take `COC(C)(C)CCCC(C)C/C=C/C(C)=C/C(=O)O` (stereo not drawn): the logP in data set [2] amounted to 4.79.

The record behind these values is ChEMBL document CHEMBL1122770, “Quantitative structure-activity relationship of insect juvenile hormone mimetic compounds” (J Med Chem, 1984).
